Experimental findings from US20250074920A1, “MACROCYCLIC COMPOUNDS AND USE AS KINASE INHIBITORS” (BLOSSOMHILL THERAPEUTICS, INC., priority 2022, published 2025) are described below.

Experiment in all cases: KINOMEscan kinase binding assay
What all share (details): at 1 μM

In one assay the test system is ROS1. A digest of the protocol:
(§1)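 Immobilized-ligand competition, qPCR-quantified. Kinase sources: T7 phage lysates from BL21-type E. coli, or HEK-293 expression plus DNA tag. Results expressed as % Ctrl (lower = stronger binding) and as Kd from capture versus concentration curves.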

For a further assay, the system named is ABL2. The method, boiled down: as §1
The test system of the next assay is FGFR3. The method, boiled down:
as §1

Assay [1] deals with ABL1(T315I)-nonphosphorylated. A digest of the protocol:
as §1

For another assay, the system named is KIT(V559D, T670I). The method, boiled down: as §1
Assay [2] has as its system ABL1(F317I)-nonphosphorylated. A digest of the protocol:
as §1

The next assay relates to TNK2. A digest of the protocol:
as §1

For another assay, the system named is YES. The method, boiled down:
as §1

For a further assay, the system named is ALK. A digest of the protocol:
as §1

Another assay relates to KIT(L576P). A digest of the protocol: as §1
The next assay has as its system TRKA. The method, boiled down:
as §1

For `Cc1cc2c([nH]1)/C=C1\C(=O)Nc3c(Cl)cc(cc31)-c1cn(C)nc1COC[C@@H](C)N(C)C2=O` [Cpd. 5, [3a(4)Z,10R]-20-chloro-6,9,10,15-tetramethyl-10,11,13,15-tetrahydro-2H-1,17-(ethanediylidene)pyrazolo[4,3-m]dipyrrolo[3,2-f:3′,4′-i][1,4]oxazacyclopentadecine-3,8(5H,9H)-dione], the “% Ctrl” value in the assay on ROS1 was determined as 69%; with ABL2, 96%; in the assay with FGFR3, 90%; in assay [1] it was 100%; with KIT(V559D, T670I) it was 95%; in assay [2] it was 90%. Further, the “% Ctrl” value is listed as 87% with TNK2; 86% in the assay with YES; 71% with ALK; 97% in the assay on KIT(L576P); 53% in the assay with TRKA.

`Cc1cc2c([nH]1)/C=C1\C(=O)Nc3c(Cl)cc(cc31)-c1cn(C)nc1COC[C@@H](C)NC2=O` [Cpd. 3, [3a(4)Z,10R]-20-chloro-6,10,15-trimethyl-10,11,13,15-tetrahydro-2H-1,17-(ethanediylidene)pyrazolo[4,3-m]dipyrrolo[3,2-f:3′,4′-i][1,4]oxazacyclopentadecine-3,8(5H,9H)-dione]: the “% Ctrl” value with ROS1 came to 62%; in the assay with ABL2, 97%; in the assay on FGFR3, 89%; in assay [1], 100%; in the assay with KIT(V559D, T670I), 100%; in assay [2] it was 100%. In addition, the “% Ctrl” value in the assay with TNK2 was 97%; in the assay on YES it was 99%; in the assay on ALK, 100%; with KIT(L576P), 100%; with TRKA it was 61%.

Take `Cc1cc2c([nH]1)/C=C1\C(=O)Nc3ccc(cc31)-c1c(nn(C)c1C)COCCN(C)C2=O` [Cpd. 2, [3a(4)Z]-6,9,15,16-tetramethyl-10,11,13,15-tetrahydro-2H-1,17-(ethanediylidene)pyrazolo[4,3-m]dipyrrolo[3,2-f:3′,4′-i][1,4]oxazacyclopentadecine-3,8(5H,9H)-dione]: the “% Ctrl” value with ROS1 is on record as 97%; with ABL2, 96%; with FGFR3, 88%; in [1], 17%; in the assay on KIT(V559D, T670I), 82%; in assay [2], 100%. In addition, the “% Ctrl” value is given as 89% in the assay on TNK2; 100% in the assay with YES; 100% in the assay with ALK; 100% in the assay with KIT(L576P); 20% in the assay on TRKA.

As for `C[C@@H]1COCc2nn(C)cc2-c2cc(Cl)c3c(c2)/C(=C/c2[nH]ccc2C(=O)N1)C(=O)N3` [Cpd. 4, [3a(4)Z,10R]-20-chloro-10,15-dimethyl-10,11,13,15-tetrahydro-2H-1,17-(ethanediylidene)pyrazolo[4,3-m]dipyrrolo[3,2-f:3′,4′-i][1,4]oxazacyclopentadecine-3,8(5H,9H)-dione], the “% Ctrl” value in the assay on ROS1 stood at 68%; in the assay on ABL2, 97%; in the assay on FGFR3, 87%; in assay [1] it was 100%; in the assay with KIT(V559D, T670I), 94%; in assay [2], 95%. Besides, the “% Ctrl” value in the assay on TNK2 stood at 100%; in the assay with YES, 95%; in the assay on ALK it was 100%; in the assay with KIT(L576P), 100%; in the assay on TRKA it was 59%.

Consider `Cc1cc2c([nH]1)/C=C1\C(=O)Nc3ccc(cc31)-c1c(nn(C)c1C)OCCCN(C)C2=O` [Cpd. 1, [3a(4)Z]-6,9,15,16-tetramethyl-9,10,11,12-tetrahydro-15H-1,17-(ethanediylidene)pyrazolo[4,3-n]dipyrrolo[3,2-g:3′,4′-j][1,5]oxazacyclopentadecine-3,8(2H,5H)-dione], for which the “% Ctrl” value with ROS1 is 91%; in the assay on ABL2, 87%; with FGFR3, 96%; in assay [1] it was 83%; in the assay with KIT(V559D, T670I), 93%; in assay [2] it was 91%. Further, the “% Ctrl” value is on record as 100% with TNK2; 100% in the assay on YES; 87% in the assay with ALK; 88% in the assay with KIT(L576P); 67% in the assay with TRKA.
